Data set [1] concerns Sandfly fever Sicilian virus. The experiment in a line: Antiviral activity against Sandfly fever sicilian virus infected in african green monkey Vero cells assessed as inhibition of virus-induced cytopathic effect by MTT assay. The format is functional, organism-based. The note with it: sandfly fever Sicilian virus, Vero; read-out: IC50. On the technique in general: Cytopathic effects are the visible damage that an infection or toxin causes in cultured cells.

In the next data set the test system is Punta Toro virus. The data set is described as follows: Antiviral activity against Punta Toro virus Adames infected in african green monkey Vero cells assessed as inhibition of virus-induced cytopathic effect by MTT assay. The note with it: Punta Toro virus, Adames, Vero; read-out: IC50. The format is functional, organism-based.
Data set [2] is described as follows: Therapeutic index, ratio of TC50 for african green monkey Vero cells to IC50 for Sandfly fever sicilian virus. Type of data set: cell-based. The note with it: read-out: TI.
The subject of a further data set is Yellow fever virus. The experiment in a line: Antiviral activity against Yellow fever virus Ashibi infected in african green monkey Vero cells assessed as inhibition of virus-induced cytopathic effect by MTT assay. The format is functional, organism-based. The note with it: Yellow fever virus, Ashibi, Vero; read-out: IC50.
A short description of data set [3]: Therapeutic index, ratio of TC50 for african green monkey Vero cells to IC50 for Japanese encephalitis virus Nakayama. The format is cell-based. The note with it: read-out: TI.
Data set [4] concerns Japanese encephalitis virus. The data set is described as follows: Antiviral activity against Japanese encephalitis virus Nakayama infected in african green monkey Vero cells assessed as inhibition of virus-induced cytopathic effect by MTT assay. The format is functional, organism-based. The conditions noted are these: Japanese encephalitis virus, Nakayama, Vero; read-out: IC50.

Data set [5] in a line: Therapeutic index, ratio of TC50 for african green monkey Vero cells to IC50 for Dengue type 4 virus. Type of data set: cell-based. The note with it: read-out: TI.
A short description of data set [6]: Therapeutic index, ratio of TC50 for african green monkey Vero cells to IC50 for Rift valley fever virus. Type of data set: cell-based. The note with it: read-out: TI.
The nature of data set [7]: Therapeutic index, ratio of TC50 for african green monkey Vero cells to IC50 for Yellow fever virus Ashibi. The format is cell-based. The note with it: read-out: TI.
A further data set concerns Rift Valley fever virus. The experiment in a line: Antiviral activity against Rift Valley fever virus infected in african green monkey Vero cells after 6 days by plaque reduction assay. Type of data set: functional, organism-based. The conditions noted are these: Rift Valley fever virus, Vero, 144 h; read-out: IC50. On the technique in general: Plaque reduction counts the foci of infection that form in a cell layer.

Data set [8] is described as follows: Therapeutic index, ratio of TC50 for african green monkey Vero cells to IC50 for Punta toro virus Adames. The conditions noted are these: read-out: TI. Type of data set: cell-based.
In a further data set the test system is dengue virus type 4. The data set is described as follows: Antiviral activity against Dengue virus type 4 infected in african green monkey Vero cells after 6 days by plaque reduction assay. Type of data set: functional, organism-based. The conditions noted are these: Dengue virus, Vero, 144 h; read-out: IC50.

In brackets after ≈: the same amount, converted by molar mass.

In general, IC50 refers to the midpoint of a concentration-inhibition curve.

`O=C1N[C@@H]2C(=C[C@H](O)[C@@H](O)[C@H]2O)c2cc3c(cc21)OCO3`: the IC50 in [1] turned out to be 0.058 µg/mL (≈ 0.199 µM); in the data set with Punta Toro virus it was 0.042 µg/mL (≈ 0.144 µM); with Yellow fever virus, 0.053 µg/mL (≈ 0.182 µM); in [4], 0.056 µg/mL (≈ 0.192 µM); in the data set with Rift Valley fever virus, 0.15 µg/mL (≈ 0.515 µM); with dengue virus type 4 it was 0.059 µg/mL (≈ 0.203 µM). The selectivity ratio worked out at 4.5 in [2]; 4.9 in [3]; 4.2 in data set [5]; 5.5 in [6]; 5.6 in data set [7]; 6.3 in data set [8].

Values taken from ChEMBL document CHEMBL1150051, “Antiviral (RNA) activity of selected Amaryllidaceae isoquinoline constituents and synthesis of related substances” (J Nat Prod, 1992).
